Experimental data reported in the Kinase Knowledgebase extract (Sharma et al. 2016).

target: MAPK14 (human) (UniProt Q16539); test: Inhibition of MAPK14 Kinase Activity
Sequence (Q16539 whole entry, looked up): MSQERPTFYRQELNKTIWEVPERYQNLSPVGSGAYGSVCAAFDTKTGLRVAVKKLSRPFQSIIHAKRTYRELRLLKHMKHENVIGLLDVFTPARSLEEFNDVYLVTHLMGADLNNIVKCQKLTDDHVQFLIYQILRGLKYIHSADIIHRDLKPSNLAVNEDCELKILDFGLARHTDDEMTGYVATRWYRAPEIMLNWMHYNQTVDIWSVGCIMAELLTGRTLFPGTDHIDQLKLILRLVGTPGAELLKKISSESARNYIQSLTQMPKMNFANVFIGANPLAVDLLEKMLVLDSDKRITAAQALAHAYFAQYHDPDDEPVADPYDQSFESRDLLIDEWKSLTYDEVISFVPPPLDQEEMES

IC50 [µM]	Structure (SMILES)
≤ 5	CC(C)Cn1c(N)nc2ccc(-c3oc(C(C)(C)C)nc3-c3ccc(F)cc3)cc21
≤ 5	CC(C)Cn1c(N)nc2ccc(-c3cn(C)nc3-c3ccccc3)cc21
≤ 5	Cc1nc2ccc(-c3c(-c4ccccc4)ncn3C3CCCCC3)cc2n1CC(C)C
≤ 5	C[C@@H](n1c(N)nc2ccc(-c3[nH]c(-c4c(Cl)cccc4Cl)nc3-c3ccccc3)cc21)C(C)(C)C
≤ 5	CC(C)Cn1c(N)nc2ccc(-c3nc(-c4c(Cl)cccc4Cl)[nH]c3-c3ccc(F)cc3)cc21
≤ 5	Nc1nc2ccc(-c3[nH]c(-c4c(F)cccc4F)nc3-c3ccccc3)cc2n1CC1CC1
≤ 5	Nc1nc2ccc(-c3[nH]c(-c4c(F)cccc4F)nc3-c3ccccc3)cc2n1Cc1cccc(F)c1
≤ 5	Nc1nc2ccc(-c3[nH]c(-c4c(F)cccc4F)nc3-c3ccccc3)cc2n1-c1ccccc1
≤ 5	CC(C)C(C)n1c(N)nc2ccc(-c3[nH]c(-c4c(F)cccc4F)nc3-c3ccccc3)cc21 (stereo unspecified)
≤ 5	CC(C)Cn1c(N)nc2ccc(-c3[nH]c(-c4c(F)cccc4Cl)nc3-c3ccc(F)cc3F)cc21
≤ 5	CC(C)(C)Cn1c(N)nc2ccc(-c3[nH]c(C(C)(C)C)nc3-c3ccc(F)cc3F)cc21
≤ 5	CC(C)Cn1c(N)nc2ccc(-c3n[nH]nc3-c3ccc(F)cc3)cc21
≤ 5	CC(C)Cn1c(N)nc2ccc(-c3[nH]c(-c4ccc(Cl)cc4)nc3-c3ccc(F)cc3)cc21
≤ 5	CCOCN1=NC(=C(N1)c2ccc3nc(N)n(CC(C)C)c3c2)c4ccccc4
≤ 5	Nc1nc2ccc(-c3nc(-c4c(F)cccc4C(F)(F)F)[nH]c3-c3ccccc3)cc2n1CC1CC1
≤ 5	CC(C)n1c(N)nc2ccc(-c3[nH]c(-c4c(F)cccc4F)nc3-c3ccccc3)cc21
≤ 5	CC(C)Cn1c(N)nc2ccc(-c3[nH]c(-c4c(F)cc(OCCN5CCCC5)cc4F)nc3-c3ccccc3)cc21
≤ 5	CC(C)n1cnc2ccc(-c3[nH]c(-c4c(F)cccc4F)nc3-c3ccccc3)cc21
≤ 5	CC(C)Cn1c(N)nc2ccc(-c3[nH]c(-c4c(F)cccc4F)nc3-c3ccccc3)cc21
≤ 5	CC(C)(C)Cn1c(N)nc2ccc(-c3nc(-c4c(Cl)cccc4Cl)[nH]c3-c3ccc(F)cc3F)cc21
≤ 5	Nc1nc2ccc(-c3nc(-c4c(F)cccc4F)[nH]c3-c3ccc(F)cc3F)cc2n1CC1CC1
≤ 5	CC(C)Cn1c(N)nc2ccc(-c3cn(C)nc3-c3ccc(F)cc3)cc21

IC50 [µM]	Structure (SMILES)
≤ 5	CC(C)Cn1c(N)nc2ccc(-c3[nH]c(C(C)C)nc3-c3ccccc3)cc21
≤ 5	CC(C)Cn1cnc2ccc(-c3c(-c4ccccc4)ncn3C3CCCCC3)cc21
≤ 5	Nc1nc2ccc(-c3nc(-c4ccc(F)cc4F)[nH]c3-c3c(F)cccc3C(F)(F)F)cc2n1CC1CC1
≤ 5	CC(C)Cn1c(N)nc2ccc(-c3c(-c4ccccc4)nc(C4CCCCC4)n3C)cc21
≤ 5	Nc1nc2ccc(-c3nc(-c4c(Cl)cccc4Cl)[nH]c3-c3ccc(F)cc3F)cc2n1CC1CC1
≤ 5	c1ccc(-c2nc(-c3ccc(OCCN4CCCCC4)cc3)[nH]c2-c2ccc3ncn(CC4CC4)c3c2)cc1
≤ 5	CC(C)Cn1c(N)nc2ccc(-c3[nH]c(C(C)(C)C)nc3-c3ccc(F)cc3)cc21
≤ 5	Nc1nc2ccc(-c3[nH]c(-c4c(F)cccc4F)nc3-c3ccccc3)cc2n1C1CCCC1
≤ 5	CC(C)Cn1c(N)nc2ccc(-c3cn(C(C)C)nc3-c3ccccc3)cc21
≤ 5	CC(C)(C)Cn1c(N)nc2ccc(-c3[nH]c(-c4c(F)cccc4C(F)(F)F)nc3-c3ccccc3)cc21
≤ 5	CC(C)(C)Cn1c(N)nc2ccc(-c3[nH]c(-c4c(F)cccc4F)nc3-c3ccccc3)cc21
≤ 5	CC(n1c(N)nc2ccc(-c3[nH]c(-c4c(F)cccc4F)nc3-c3ccccc3)cc21)C(C)(C)C (stereo unspecified)
≤ 5	CC(C)Cn1c(N)nc2ccc(-c3n[nH]nc3-c3ccc(F)cc3F)cc21
≤ 5	CC(C)(C)c1nc(-c2ccc3nc(N)n(CC4CC4)c3c2)c(-c2ccc(F)cc2F)[nH]1
≤ 5	Nc1nc2ccc(-c3[nH]c(-c4c(F)cccc4F)nc3-c3ccccc3)cc2n1CC1CCCCC1
≤ 5	CC(C)Cn1c(N)nc2ccc(-c3c(-c4ccccc4)ncn3C3CCCCC3)cc21
≤ 5	CC(C)(C)Cn1c(N)nc2ccc(-c3nc(-c4c(Cl)cccc4Cl)[nH]c3-c3ccccc3)cc21
≤ 5	CCC(CC)n1c(N)nc2ccc(-c3[nH]c(-c4c(F)cccc4F)nc3-c3ccccc3)cc21
≤ 5	CC(C)Cn1c(N)nc2ccc(-c3[nH]c(-c4ccccc4C(F)(F)F)nc3-c3ccc(F)cc3)cc21
≤ 5	CC(C)(C)Cn1c(N)nc2ccc(-c3[nH]c(C4CC4)nc3-c3ccc(F)cc3F)cc21
≤ 5	CC(C)Cn1c(N)nc2ccc(-c3nc(-c4c(F)cccc4Cl)[nH]c3-c3ccc(F)cc3)cc21
≤ 5	CC(C)n1c(N)nc2ccc(-c3n[nH]nc3-c3ccccc3)cc21

IC50 [µM]	Structure (SMILES)
≤ 5	CC(C)Cn1c(N)nc2cc(-c3[nH]c(-c4c(F)cccc4Cl)nc3-c3ccccc3)ccc21
≤ 5	CC(C)Cn1c(N)nc2ccc(-c3[nH]c(-c4c(Cl)cccc4Cl)nc3-c3ccc(F)cc3F)cc21
≤ 5	CC(C)Cn1c(N)nc2ccc(-c3c(-c4ccccc4)nc4ccccn34)cc21
≤ 5	CCn1c(N)nc2ccc(-c3[nH]c(-c4c(F)cccc4F)nc3-c3ccccc3)cc21
≤ 5	CC(C)Cn1c(N)nc2ccc(-c3cn[nH]c3-c3ccc(F)cc3)cc21
≤ 5	CC(C)Cn1c(N)nc2ccc(-c3[nH]c(C4CC4)nc3-c3ccc(F)cc3F)cc21
≤ 5	CC(C)(C)Cn1c(N)nc2ccc(-c3[nH]c(-c4c(F)cccc4Cl)nc3-c3ccccc3)cc21
≤ 5	CC(C)Cn1c(N)nc2ccc(-c3[nH]c(-c4c(F)cccc4Cl)nc3-c3ccccc3)cc21
≤ 5	CCOCn1nc(-c2ccccc2)c(-c2ccc3nc(N)n(CC(C)C)c3c2)n1
≤ 5	CC(C)Cn1c(N)nc2ccc(-c3[nH]c(C(C)(C)C)nc3-c3ccccc3)cc21
≤ 5	CC(C)Cn1c(N)nc2ccc(-c3nc(-c4c(Cl)cccc4Cl)[nH]c3-c3ccccc3)cc21
≤ 5	C[C@@H](n1c(N)nc2ccc(-c3[nH]c(-c4c(F)cccc4Cl)nc3-c3ccccc3)cc21)C(C)(C)C
≤ 5	Cc1nc(-c2ccc(F)cc2F)c(-c2ccc3nc(N)n(C(C)C(C)C)c3c2)[nH]1 (stereo unspecified)
≤ 5	Nc1nc2ccc(-c3[nH]c(-c4c(F)cccc4F)nc3-c3ccccc3)cc2n1Cc1ccccc1
≤ 5	CCn1cnc2ccc(-c3[nH]c(-c4c(F)cccc4F)nc3-c3ccccc3)cc21
≤ 5	C[C@@H](n1c(N)nc2ccc(-c3[nH]c(-c4c(F)cccc4F)nc3-c3ccccc3)cc21)C(C)(C)C
≤ 5	CC(C)Cn1c(N)nc2ccc(-c3c[nH]nc3-c3ccc(F)cc3F)cc21
≤ 5	Cc1nc(-c2ccc(F)cc2F)c(-c2ccc3ncn(CC(C)C)c3c2)[nH]1
≤ 5	Cn1c(N)nc2ccc(-c3[nH]c(-c4c(F)cccc4F)nc3-c3ccccc3)cc21
≤ 5	CC(C)Cn1cnc2ccc(-c3n[nH]nc3-c3ccccc3)cc21
≤ 5	Cc1nc(-c2ccccc2)c(-c2ccc3nc(N)n(CC(C)C)c3c2)[nH]1
≤ 5	CC(C)(C)Cn1c(N)nc2ccc(-c3[nH]c(-c4c(F)cccc4Cl)nc3-c3ccc(F)cc3F)cc21
